In article PMC7037732, “Synthesis of Combretastatin A-4 and 3′-Aminocombretastatin A-4 derivatives with Aminoacid Containing Pendants and Study of their Interaction with Tubulin and as Downregulators of the VEGF, hTERT and c-Myc Gene Expression” (Molecules, 2020):
Values joined by “and” are separate entries in the source; they are usually repeats but may differ in a detail not shown here. Equal entries are not always repeated. “Also recorded” adds a separate entry of the source.

How the values were obtained:
tubulin = assay: In vitro tubulin polymerization by turbidimetry (It50); type: biochemical; conditions: turbidimetry at 350 nm, 37 °C; for It50 (time required to reach 50% of the polymerization): control 16.6 ± 1.0; for Effect on in vitro tubulin polymerization: result in words
Experimental: Figure 3 also includes polymerization curves in the presence of CA-4, AmCA-4 and paclitaxel. This test was also performed using paclitaxel, a microtubule stabilizing agent, as a control for the complete formation of microtubules (see Figure 3).

A-549 cells = assay: Effect on the cellular microtubule network (immunofluorescence); type: cell-based, human
Experimental: The effect on the cellular microtubule network of CA-4 derivatives was studied for compounds 1, 3.7 (L-Thr-OMe), 3.8 (L-Tyr-OMe), 4.2 (L-Val) and 4.3 (L-Leu), which were those accumulating more cells in the G2/M phase. Thus, A-549 cells were incubated for 24 h in the presence of the above compounds and CA-4 at the concentrations indicated in Figure 4.
The effect of some derivatives on the cellular microtubule network were also studied on A-549 cells. The selected compounds were 7.1 (Fmoc-Gly) (0.5 μM), 8.1 (Gly) (2 μM), 8.2 (L-Ala) (3 μM) and 10.1 (D-Val) (40 μM), which were those exerting a higher effect on the cell cycle.
For immunofluorescence microscopy of the microtubule network, 10^6 cells were plated on cover glass and incubated with the different drugs. Cells were then fixed in 3.7% formaldehyde (in PBS pH 7.4) for 20 min at room temperature and permeabilized with PBS-Triton X-100 0.5% for 10 min at room temperature. Direct immunostaining was carried out for 2 h at room temperature with a primary FITC-conjugated anti-α-tubulin antibody (dilution 1:400 in PBS-BSA 1% from a 1 mg/mL solution; monoclonal antibody, clone DM1A; Sigma-Aldrich, Darmstadt, Germany.). Next, cells were incubated for 45 min at room temperature in darkness with secondary Alexa Fluor 488-conjugated antibodies (dilution 1:200 each from 1.5 mg/mL; Molecular Probe, France). Then, cells were washed in PBS and cover glasses were mounted with a drop of ProLong® antifade solution (Invitrogen). The cytoskeleton was imaged by a confocal laser scanning microscope (CLSM) Leica SP5 with a Leica inverted microscope, equipped with a Plan-Apochromat 63× oil immersion objective (NA = 1.4). Each image was recorded with the CLSM’s spectral mode selecting specific domains of the emission spectrum. The FITC fluorophore was excited at 488 nm with an argon laser, and its fluorescence emission was collected between 496 nm and 535 nm.

| SMILES | It50 (time required to reach 50% of the polymerization) (tubulin) | Effect on in vitro tubulin polymerization (tubulin) | also measured |
| --- | --- | --- | --- |
| COc1ccc(/C=C\c2cc(OC)c(OC)c(OC)c2)cc1NC(=O)CN [Compound 8.1] | 18.5 ± 2.1 min | – | Effect on the microtubule network (A-549 cells; A-549, 2 μM): almost total depolymerization of the microtubule network |
| COc1ccc(/C=C\c2cc(OC)c(OC)c(OC)c2)cc1NC(=O)[C@H](C)N [Compound 8.2] | 48 ± 5 min | able to delay the polymerization process; also recorded: partial inhibitors of the polymerization process; also recorded: partial inhibitors of the in vitro polymerization of tubulin | Effect on the microtubule network (A-549 cells; A-549, 3 μM): almost total depolymerization of the microtubule network |
| COc1ccc(/C=C\c2cc(OC)c(OC)c(OC)c2)cc1NC(=O)CNC(=O)OCC1c2ccccc2-c2ccccc21 [Compound 7.1] | 16 ± 3 min | – | Effect on the microtubule network (A-549 cells; A-549, 0.5 μM): almost total depolymerization of the microtubule network |
| COc1ccc(/C=C\c2cc(OC)c(OC)c(OC)c2)cc1N [AmCA-4, 3′-aminocombretastatin A-4] | – | almost no absorbance is detected | Effect on the microtubule network (A-549 cells; A-549, 24 h, 50 nM): total depolymerization of microtubules |
| COc1ccc(/C=C\c2cc(OC)c(OC)c(OC)c2)cc1O [CA-4, combretastatin A-4] | – | almost no absorbance is detected | Effect on the microtubule network (A-549 cells; A-549, 24 h, 50 nM): greatly depolymerizes microtubules |
| COc1ccc(/C=C\c2cc(OC)c(OC)c(OC)c2)cc1NC(=O)[C@@H](N)Cc1ccccc1 [Compound 8.5] | – | – | Effect on the microtubule network (A-549 cells; A-549, 0.5 μM): much less active |
| COc1ccc(/C=C\c2cc(OC)c(OC)c(OC)c2)cc1NC(=O)[C@@H](N)C(C)O (some centres unmarked) [Compound 8.7] | 65 min and 65 ± 7 min | able to delay the polymerization process; also recorded: partial inhibitors of the polymerization process; also recorded: partial inhibitors of the in vitro polymerization of tubulin | – |
